One may read the IC50 as the concentration that inhibits the measured activity by half. What is called Kd is a measure of binding affinity in units of concentration. Read a low Kd as higher affinity.

Series [1] concerns sigma receptor. The series can be described thus: [3H]DTG displacement radioligand binding assay, guinea pig brain membranes.
Series [2] deals with sigma site in brain sections. Briefly: receptor autoradiography of [3H]DTG binding, brain sections. Set-up: species or system guinea pig and rat. The note with it: 2 nM [3H]DTG. The protocol: Male Sprague Dawley rats (200-250 g) and NIH guinea pigs (300-350 g) were sacrificed, their brains rapidly removed and processed for receptor autoradiography according to the method of Herkenham et al. J. Neuroscience 2:1129-1149 (1982).
Incubations were terminated by 4×2 minute washes in […] Tris-HCl (pH 7.4, 4° C.) with 1 mg/ml BSA, rapidly dried under a stream of cool air and placed in x-ray cassettes with ^3 H-sensitive film (^3 H-ultrofilm, LKB). Films were developed 6-8 weeks later (D-19, Kodak).

The subject of series [3] is sigma receptor. The series can be described thus: [3H]DTG saturation binding / binding characteristics, guinea pig brain membranes. The note with it: for binding to sigma receptor sites (words): guinea pig brain membrane homogenates and slide-mounted rat and guinea pig brain sections. The procedure:
Values obtained were the mean of quadruplicate determinations.
Frozen guinea pig brains (Pel-Freeze, Rogers, Ariz.) were homogenized in 10 volumes (w/v) of 0.32M sucrose using a Polytron homogenizer. The homogenate was spun at 900×g for 10 minutes at 4° C. The supernatant was collected, and spun at 22,000×g for 20 minutes at 4° C. The pellet was resuspended in 10 volumes of 50 mM Tris/HCl buffer, pH 7.4, incubated at 37° C. for 30 minutes and spun again at 22,000×g for 20 minutes at 4° C. The pellet was then resuspended in 10 volumes of 50 mM Tris/HCl buffer, pH 7.4 and 10 ml aliquots of this membrane suspension were stored frozen at -70° C. until used in the binding assay.
For radioreceptor assays aliquots of the frozen membrane suspension were thawed and diluted tenfold with […] Tris/HCl buffer, pH 7.4. […] The protein concentration in the 1 ml final incubation volume was 800 ug, corresponding to 32 mg of brain tissue (original wet weight). […] After incubation for 90 minutes at room temperature the membrane suspension was rapidly filtered under vacuum through Whatman GF/B glass fiber filters using a Brandel 48 well cell harvester (Brandel, Gaithersburg, Md.). The filters were washed with 3×5 ml ice-cold […] Tris buffer (pH 7.4 at room temperature). The filters were dissolved in 10 ml each of Cytoscint (Westchem Products, San Diego, Calif.) and radioactivity was measured by liquid scintillation spectrometry at a counting efficiency of 35-50%. Saturation data were evaluated by Scatchard analysis using both the EBDA NcPherson, G. A., Computer Programs Biomed.

In series [4] the test system is sigma receptor. The note with it: cited from earlier work.
Series [5] concerns D1 subclass of dopamine receptors. The note with it: cited from earlier work.
In series [6] the test system is D2 class of striatal dopamine receptors. The note with it: cited from earlier work.
Series [7] has as its system rats. The note with it: rat, in vivo; cited from earlier work.
In series [8] the test system is adrenergic, muscarinic, cholinergic, or histaminergic sites. The note with it: cited from earlier work.
Series [9] concerns dopamine-stimulated cAMP production. The note with it: in vitro; cited from earlier work.
Series [10] concerns mu, delta and kappa receptors. The note with it: cited from earlier work.
In series [11] the test system is anxiety behavior of mice. The note with it: mouse, in vivo, ip, 10 mg/kg.
Series [12] concerns social interaction of rats. Briefly: rat social interaction test. The format is in vivo, rat (male Hooded Lister). The note with it: i.p.; 10 min session; n=6, P<0.001.
Description: A second preferred animal model is the rat social interaction test described by Jones, B. J. et al., supra, wherein the time that two mice spend in social interaction is quantified. […] Both the familiarity and the light level of the test arena may be manipulated. Undrugged rats show the highest level of social interaction when the test arena is familiar and is lit by low light. Social interaction declines if the arena is unfamiliar to the rats or is lit by bright light. Anxiolytic agents prevent this decline. The overall level of motor activity may also be measured to allow detection of drug effects specific to social behaviors.
Male Hooded Lister rats (Glaxo bred, 200-250 g), were housed 5 to a cage and were kept in the laboratory environment for at least a week before testing. Rats paired in the test were taken from separate cages.
The test arena consisted of an open-topped box, 62×62×33 cm with a 7×7 matrix of infra-red photocell beams in the walls, 2.5 cm from the floor.
Testing involved placing each member of a pair of rats in opposite comers of the arena and then leaving them undisturbed for 10 min. while recording their behavior remotely on videotape. The behavioral assessments were made subsequently from the recordings. The time spent in social interaction was measured and expressed as a cumulative total for the 10 min session. The behaviors that comprised social interaction were: following with contact, sniffing (but not sniffing of the hindquarters), crawling over and under, tumbling, boxing and grooming.
Series [13] concerns anxiety behavior of mice. The series can be described thus: black:white test box (light/dark exploration) of mice. The note with it: mouse, in vivo, ip.
For series [14], the system named is anxiety. The note with it: in vivo; cited from earlier work.
The subject of series [15] is apomorphine-induced mesolimbic behaviors. The note with it: without altering the intensity of stereotypic behaviors; cited from earlier work.
Series [16] has as its system dopamine-stimulated production of cAMP. The note with it: homogenates of rat striatum and olfactory tubercle; cited from earlier work.
The test system of series [17] is dopamine synthesis. The note with it: cited from earlier work.
Series [18] concerns the target T1, sigma receptor from guinea pig brain (Cavia porcellus, UniProt Q60492).
T1 construct: from tissue; host or cells: guinea pig brain membranes
Briefly: [3H]AZ-DTG binding and photoaffinity labeling of the sigma receptor. The note with it: fluorography of SDS-PAGE gels after UV irradiation. The procedure: (§1) The filters were then irradiated with long-wavelength UV light for a 15 minute period. Filter-bound proteins were solubilized with 50 mM Tris pH 7.4, 0.1% sodium dodecyl sulfate. Solubilized proteins were subjected to SDS-polyacrylamide gel electrophoresis.

Series [19] has as its target sigma receptor from guinea pig brain. Described as above. The note with it: in the dark; brain membranes. The procedure: as §1
The test system of series [20] is rhesus monkeys. The note with it: introduction of foreign objects into cages; cited from earlier work.

Entries after “also recorded” stand apart in the source; their conditions may differ. Where two headings read alike, the source gives them in different places.

T1 sequence (Q60492 whole entry): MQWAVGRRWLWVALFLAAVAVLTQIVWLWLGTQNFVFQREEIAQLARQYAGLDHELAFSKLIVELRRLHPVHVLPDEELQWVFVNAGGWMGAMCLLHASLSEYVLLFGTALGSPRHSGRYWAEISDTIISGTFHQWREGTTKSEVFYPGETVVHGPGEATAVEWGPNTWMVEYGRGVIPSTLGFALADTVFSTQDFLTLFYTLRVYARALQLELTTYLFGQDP

As to `[3H]c1ccc(NC(=N)Nc2ccc([3H])cc2C)c(C)c1` [[^3 H]DTG, N,N'-di-(4-[^3 H]-2-methylphenyl)-guanidine], the “specific binding of total [3H]DTG binding” value in [1] is on record as above 90%. Besides, the “distribution/density of [3H]DTG binding” value in series [2] is “low density of specific binding diffusely distributed throughout the gray matter; also recorded: heterogeneous distribution of enriched binding in limbic and sensorimotor structures; also recorded: Very dense binding was seen in the choroid plexus; also recorded: very dense binding was found in the subcommissural organ; also recorded: The oculomotor nucleus, and more caudally, the trochlear nucleus were very densely labeled; also recorded: In the hindbrain the locus coeruleus was the most densely labeled nucleus”. For the same molecule, in [3], the “specific binding, % of total binding” value was 90-97%; the “binding to sigma receptor sites (words)” value is “binds specifically and with high affinity to a single class of binding sites; also recorded: bound specifically, saturably, reversibly, and with high affinity”. The molecule further registered a total binding in [3] (0.9 nM [3H]DTG) of 2700 cpm. Besides, in [3] (0.9 nM [3H]DTG, 10 uM DTG or 10 uM haloperidol), the nonspecific binding is given as 50-150 cpm. For the same molecule, the “abolition of specific binding by boiling of membranes” value in series [3] (100° C. for 10 minutes prior to assay) was 90%. The reversibility of binding result in [3] (after addition of 10 uM unlabeled DTG) is on record as “fully reversible”. In addition, the “binding to sigma receptor sites (words)” value in [3] (listed as [^3 H]--DTG) was “binds reversibly, saturably, selectively and with high affinity”. In series [3] (original wet weight), the “maximum number of binding sites (Bmax)” value came to 85 pmol/g brain tissue. Moreover, the “time to binding equilibrium” value in [3] (room temperature) fell in the range of 60 to 90 min.

With `OC(CCCN1CCN(c2ncc(F)cn2)CC1)c1ccc(F)cc1` (stereo not shown) [BMY 14802], in series [4], the “binding to the sigma receptor” value is “binds with relatively high affinity to the sigma receptor” and the “potency of dextrorotatory vs levorotatory enantiomer at inhibiting sigma binding” value is given as 10 times. Further, the “interaction with D1 subclass / inhibition of [3H]SCH 23390 binding in vitro” value in series [5] was “does not appear to interact with the D1 subclass of dopamine receptors”. The “maximal density of [3H]spiperone-labeled D2 site” value in [6] (chronic administration (20 days) to rats) was “did not increase the maximal density”. Also, the “inhibition of [3H]spiperone binding to D2” value in series [6] is “does not inhibit the binding of [^3 H]spiperone”. In [7], the catalepsy result was “did not cause catalepsy in rats”. For the same molecule, in series [8], the “binding to adrenergic, muscarinic, cholinergic, or histaminergic sites” value is “does not bind to the adrenergic, muscarinic, cholinergic, or histaminergic sites”. The “inhibition of dopamine-stimulated cAMP production” value in [9] is recorded as “does not inhibit dopamine-stimulated cAMP production”.

As to `C=CCN1CCC2(C)c3cc(O)ccc3CC1C2C` (single isomer, unassigned; (-)) [(-)SKF 10,047, N-allyl-normetazocine, reference compound], in series [10], the “binding to delta, mu and kappa receptors” value is “apparently labeled the mu and kappa receptors but not the sigma receptors”. The values for the 50% inhibitory concentration (IC50) in series [1] (read-out: IC50 binding values) and in series [1] (read-out: IC50 vs. [3H]DTG) were 4 ± 0.566 µM and 4 µM, respectively.

Turning to `CN1C(=O)CN=C(c2ccccc2)c2cc(Cl)ccc21` [diazepam, reference compound], the “sedation: numbers of rears and line crossings” value in series [11] is reported as “decreased significantly showing that the drug was markedly sedative”. Besides, the “time spent in social interaction” value in series [12] is reported as “significantly increased social interactions”. In [13], the “numbers of line crossings and/or rears in the light compartment” value is “increased at the expense of those in the dark compartment” and the “proportion of time in light area / percentage of time in black compartment” value was “dose-dependently increased the proportion of time the mice spent in the larger, lighted area”. Also, in series [1], the “displacement of [3H]DTG” value was “no significant displacement”.

As to `C[C@@H]1CN(CCCn2c3ccccc3c3ccccc32)C[C@H](C)N1.Cl.Cl` [rimcazole, cis-9-[3-(3,5-dimethyl-1-piperazinyl)propyl]carbazole dihydrochloride], the anxiolytic activity entry in series [14] is given as “determined to have anxiolytic activity”. Moreover, the “antagonism of apomorphine-induced mesolimbic behaviors” value in series [15] is “ability to antagonize apomorphine-induced mesolimbic behaviors selectively”. For the same molecule, the “effect on dopamine-stimulated cAMP” value in series [16] is reported as “does not affect dopamine-stimulated production of cAMP”. Besides, in series [17], the “effect on rate of dopamine synthesis” value was “does not accelerate the rate of dopamine synthesis”.

For `Cc1ccccc1NC(=N)Nc1ccc(N=[N+]=[N-])cc1C` [[^3 H]AZ--DTG, [^3 H]-m-azido-1,3-di-o-tolylguanidine], the “size of polypeptide selectively labeled” value in series [18] was 29 kD. In [19], the affinity, expressed as Kd, was 0.028 µM.

As to `O=C1CC2(CCCC2)CC(=O)N1CCCCN1CCN(c2ncccn2)CC1` [Buspirone], in series [20], the “taming of the aggressive response” value is “efficacy in a predictive animal model”.
